Assay results reported in PubChem BioAssay (NCI).
“And” between values parts separate entries of the source, which are not always exact repeats. Equal values may be shown once.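 Values below derive from 48-hour exposures of cells grown in 96-well plates, with endpoints linearly interpolated between the two concentrations bracketing the appropriate inhibition level. GI50 = concentration required for 50% inhibition of growth. The concentration for full growth arrest is given as TGI.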

Columns and labels:
Assay in all cases: NCI tumour cell line growth inhibition, 48 h
[1] = tested on: 786-0 renal
[2] = tested on: A498 renal
[3] = tested on: A549 NSCLC
[4] = tested on: ACHN renal
[5] = tested on: BT-549 breast
[6] = tested on: CAKI-1 renal
[7] = tested on: COLO 205 colon
[8] = tested on: DU-145 prostate
[9] = tested on: EKVX NSCLC
[10] = tested on: HCC-2998 colon
[11] = tested on: HCT-116 colon
[12] = tested on: HCT-15 colon
[13] = tested on: HOP-62 NSCLC
[14] = tested on: HOP-92 NSCLC
[15] = tested on: HS 578T breast
[16] = tested on: HT29 colon
[17] = tested on: IGROV1 ovarian
[18] = tested on: KM12 colon
[19] = tested on: LOX IMVI melanoma
[20] = tested on: M14 melanoma
[21] = tested on: MALME-3M melanoma
[22] = tested on: MCF7 breast
[23] = tested on: MDA-MB-231 breast
[24] = tested on: MDA-MB-435
[25] = tested on: MOLT-4 leukemia
[26] = tested on: NCI-H226 lung
[27] = tested on: NCI-H23 lung
[28] = tested on: NCI-H460 lung
[29] = tested on: NCI-H522 lung
[30] = tested on: NCI/ADR-RES ovarian
[31] = tested on: OVCAR-3 ovarian
[32] = tested on: OVCAR-4 ovarian
[33] = tested on: OVCAR-5 ovarian
[34] = tested on: OVCAR-8 ovarian
[35] = tested on: PC-3 prostate
[36] = tested on: RPMI-8226 leukemia
[37] = tested on: RXF 393 renal
[38] = tested on: SF-268 CNS
[39] = tested on: SF-295 CNS
[40] = tested on: SF-539 CNS
[41] = tested on: SK-MEL-2 melanoma
[42] = tested on: SK-MEL-28 melanoma
[43] = tested on: SK-MEL-5 melanoma
[44] = tested on: SK-OV-3 ovarian
[45] = tested on: SN12C renal
[46] = tested on: SNB-19 CNS
[47] = tested on: SNB-75 CNS
[48] = tested on: SW-620 colon
[49] = tested on: T-47D breast
[50] = tested on: TK-10 renal
[51] = tested on: U251 CNS
[52] = tested on: UACC-257 melanoma
[53] = tested on: UACC-62 melanoma
[54] = tested on: UO-31 renal

For COCCNCCc1cccc(Nc2ncc3c(n2)-c2ccccc2C(c2ccccc2F)C3)c1 (stereo not drawn), the GI50 [1] was 1.43 µM and 1.76 µM, the TGI [1] was 2.91 µM and 3.3 µM and the GI50 [2] was 0.345 µM and 1.61 µM. The TGI [2] was 1.75 µM and 3.14 µM, the GI50 [3] was 1.78 µM and 1.88 µM and the TGI [3] was 3.33 µM and 3.51 µM. For the same compound, the GI50 [4] was 1.03 µM and 1.05 µM, the TGI [4] was 2.2 µM and 2.23 µM and the GI50 [5] was 1.55 µM and 7.79 µM. For the same compound, the TGI [5] was 2.95 µM and 25.6 µM, the GI50 [6] was 1.27 µM and 1.26 µM and the TGI [6] was 2.54 µM. For the same compound, the GI50 [7] was 1.88 µM and 1.92 µM, the TGI [7] was 3.67 µM and 3.63 µM and the GI50 [8] was 1.53 µM and 1.62 µM. The TGI [8] was 2.98 µM and 3.04 µM, the GI50 [9] was 1.63 µM and 1.92 µM and the TGI [9] was 3.13 µM and 3.51 µM. For the same compound, the GI50 [10] was 1.77 µM and 2.08 µM, the TGI [10] was 3.28 µM and 3.65 µM and the GI50 [11] was 1.21 µM and 1.66 µM. For the same compound, the TGI [11] was 2.6 µM and 3.12 µM, the GI50 [12] was 1.19 µM and 1.26 µM and the TGI [12] was 2.56 µM and 2.6 µM. For the same compound, the GI50 [13] was 1.6 µM and 1.71 µM, the TGI [13] was 3.11 µM and 3.3 µM and the GI50 [14] was 1.02 µM and 1.24 µM. For the same compound, the TGI [14] was 2.27 µM and 2.65 µM, the GI50 [15] was 1.15 µM and 1.27 µM and the TGI [15] was 3.46 µM and 3.79 µM. For the same compound, the GI50 [16] was 1.12 µM and 1.31 µM, the TGI [16] was 2.36 µM and 2.68 µM and the GI50 [17] was 1 µM and 1.21 µM. The TGI [17] was 2.38 µM and 2.75 µM, the GI50 [18] was 1.77 µM and 1.79 µM and the TGI [18] was 3.43 µM and 3.37 µM. The GI50 [19] was 1.25 µM and 1.23 µM, the TGI [19] was 2.56 µM and 2.5 µM and the GI50 [20] was 1.56 µM and 1.94 µM. For the same compound, the TGI [20] was 3.06 µM and 3.78 µM, the GI50 [21] was 1.77 µM and 1.87 µM and the TGI [21] was 3.41 µM and 3.54 µM. The GI50 [22] was 1.58 µM and 1.78 µM, the TGI [22] was 3.4 µM and 3.69 µM and the GI50 [23] was 1.67 µM and 1.45 µM. For the same compound, the TGI [23] was 3.11 µM and 2.84 µM, the GI50 [24] was 1.75 µM and 1.82 µM and the TGI [24] was 3.25 µM and 3.32 µM. The GI50 [25] was 1.18 µM, the TGI [25] was 4.15 µM and the GI50 [26] was 1.31 µM and 1.8 µM. For the same compound, the TGI [26] was 2.94 µM and 3.67 µM, the GI50 [27] was 1.65 µM and 1.75 µM and the TGI [27] was 3.1 µM and 3.32 µM. For the same compound, the GI50 [28] was 1.33 µM and 1.7 µM, the TGI [28] was 3.08 µM and 3.47 µM and the GI50 [29] was 1.53 µM and 1.52 µM. The TGI [29] was 2.95 µM, the GI50 [30] was 1.79 µM and 1.76 µM and the TGI [30] was 3.43 µM and 3.45 µM. For the same compound, the GI50 [31] was 1.76 µM and 1.6 µM, the TGI [31] was 3.48 µM and 3.1 µM and the GI50 [32] was 1.34 µM and 1.72 µM. The TGI [32] was 2.74 µM and 3.18 µM, the GI50 [33] was 1.42 µM and 1.57 µM and the TGI [33] was 2.76 µM and 3.02 µM. The GI50 [34] was 1.79 µM and 1.87 µM, the TGI [34] was 3.38 µM and 3.9 µM and the GI50 [35] was 1.49 µM and 1.39 µM. For the same compound, the TGI [35] was 2.89 µM and 2.86 µM, the GI50 [36] was 1.52 µM and 1.74 µM and the TGI [36] was 3.7 µM and 4.23 µM. For the same compound, the GI50 [37] was 1.11 µM and 1.24 µM, the TGI [37] was 2.39 µM and 2.59 µM and the GI50 [38] was 1.44 µM and 1.64 µM. For the same compound, the TGI [38] was 3.07 µM and 3.19 µM, the GI50 [39] was 1.72 µM and 1.61 µM and the TGI [39] was 3.11 µM and 2.99 µM. For the same compound, the GI50 [40] was 1.32 µM and 1.5 µM, the TGI [40] was 2.62 µM and 2.86 µM and the GI50 [41] was 1.71 µM and 1.94 µM. The TGI [41] was 3.19 µM and 3.44 µM, the GI50 [42] was 1.6 µM and 1.76 µM and the TGI [42] was 2.97 µM and 3.18 µM. The GI50 [43] was 1.65 µM, the TGI [43] was 3.04 µM and 3.03 µM and the GI50 [44] was 1.71 µM and 2.45 µM. For the same compound, the TGI [44] was 3.14 µM and 6.34 µM, the GI50 [45] was 1.32 µM and 1.04 µM and the TGI [45] was 2.7 µM and 2.34 µM. The GI50 [46] was 1.75 µM and 1.81 µM, the TGI [46] was 3.18 µM and 3.28 µM and the GI50 [47] was 1.17 µM and 0.727 µM. For the same compound, the TGI [47] was 2.48 µM and 2.09 µM, the GI50 [48] was 2.4 µM and the TGI [48] was 4.63 µM. For the same compound, the GI50 [49] was 1.76 µM and 1.82 µM, the TGI [49] was 3.6 µM and 3.92 µM and the GI50 [50] was 1.38 µM and 1.6 µM. For the same compound, the TGI [50] was 2.74 µM and 2.98 µM, the GI50 [51] was 1.24 µM and 1.82 µM and the TGI [51] was 2.57 µM and 3.28 µM. The GI50 [52] was 2.01 µM and 2.15 µM, the TGI [52] was 3.54 µM and 4.05 µM and the GI50 [53] was 1.72 µM and 1.76 µM. For the same compound, the TGI [53] was 3.12 µM and 3.16 µM, the GI50 [54] was 0.685 µM and 1.29 µM and the TGI [54] was 2.06 µM and 2.57 µM.
